In ChEMBL document CHEMBL1137662, “Effect of oral treatment with hexadecyloxypropyl-[(S)-9-(3-hydroxy-2- phosphonylmethoxypropyl)adenine] [(S)-HPMPA] or octadecyloxyethyl-(S)-HPMPA on cowpox or vaccinia virus infections in mice” (Antimicrob Agents Chemother, 2007):
Calls of active or inactive are those of the source. The rule behind the calls is not given here.

Key:
[1] = test system: Vaccinia virus; test: Antiviral activity against Vaccinia virus WR infected BALB/c mouse assessed as mortality at 3 mg/kg, po treated for 5 days after 48 hrs of viral inoculation; assay type: functional, Orthopoxvirus vaccinia
[2] = test system: Cowpox virus; test: Antiviral activity against Cowpox virus Brighton infected BALB/c mouse assessed as mean death day at 3 mg/kg, po treated for 5 days after 72 hrs of viral inoculation; assay type: functional, Cowpox virus (Brighton Red)
[3] = test system: Cowpox virus; test: Antiviral activity against Cowpox virus Brighton infected BALB/c mouse assessed as mean death day at 10 mg/kg, po treated for 5 days after 72 hrs of viral inoculation; assay type: functional, Cowpox virus (Brighton Red)
[4] = test system: Vaccinia virus; test: Antiviral activity against Vaccinia virus WR infected BALB/c mouse assessed as mean death day at 10 mg/kg, po treated for 5 days after 72 hrs of viral inoculation; assay type: functional, Orthopoxvirus vaccinia
[5] = test system: Cowpox virus; test: Antiviral activity against Cowpox virus Brighton infected BALB/c mouse assessed as mean death day at 10 mg/kg, po treated for 5 days after 48 hrs of viral inoculation; assay type: functional, Cowpox virus (Brighton Red)
[6] = test system: Vaccinia virus; test: Antiviral activity against Vaccinia virus WR infected BALB/c mouse assessed as mean death day at 10 mg/kg, po treated for 5 days after 48 hrs of viral inoculation; assay type: functional, Orthopoxvirus vaccinia
[7] = test system: Vaccinia virus; test: Antiviral activity against Vaccinia virus WR in HFF cells assessed as reduction of viral replication after 3 days; assay type: functional, organism-based; conditions: Orthopoxvirus vaccinia, 72 h
[8] = test system: Vaccinia virus; test: Antiviral activity against Vaccinia virus Copenhagen in HFF cells assessed as reduction of viral replication after 3 days; assay type: functional, organism-based; conditions: Orthopoxvirus vaccinia, 72 h
[9] = test system: Vaccinia virus; test: Antiviral activity against Vaccinia virus WR infected BALB/c mouse assessed as mean death day at 30 mg/kg, po treated for 5 days after 72 hrs of viral inoculation; assay type: functional, Orthopoxvirus vaccinia
[10] = test system: Vaccinia virus; test: Antiviral activity against Vaccinia virus WR infected BALB/c mouse assessed as mean death day at 3 mg/kg, po treated for 5 days after 72 hrs of viral inoculation; assay type: functional, Orthopoxvirus vaccinia
[11] = test system: Cowpox virus; test: Antiviral activity against Cowpox virus Brighton infected BALB/c mouse assessed as mortality at 3 mg/kg, po treated for 5 days after 24 hrs of viral inoculation; assay type: functional, Cowpox virus (Brighton Red)
[12] = Selectivity index, ratio of CC50 for HFF cells to EC50 for Vaccinia virus Copenhagen; assay type: toxicity, cell-based; conditions: human, read-out: Ratio CC50/EC50
[13] = Cytotoxicity against HFF cells after 7 days; assay type: cell-based; conditions: human
[14] = test system: Vaccinia virus; test: Antiviral activity against Vaccinia virus WR infected BALB/c mouse assessed as mortality at 3 mg/kg, po treated for 5 days after 24 hrs of viral inoculation; assay type: functional, Orthopoxvirus vaccinia
[15] = test system: Cowpox virus; test: Antiviral activity against Cowpox virus Brighton infected BALB/c mouse assessed as mean death day at 30 mg/kg, po treated for 5 days after 48 hrs of viral inoculation; assay type: functional, Cowpox virus (Brighton Red)
[16] = test system: Cowpox virus; test: Antiviral activity against Cowpox virus Brighton infected BALB/c mouse assessed as mortality at 30 mg/kg, po treated for 5 days after 48 hrs of viral inoculation; assay type: functional, Cowpox virus (Brighton Red)
[17] = test system: Cowpox virus; test: Antiviral activity against Cowpox virus Brighton infected BALB/c mouse assessed as mortality at 10 mg/kg, po treated for 5 days after 24 hrs of viral inoculation; assay type: functional, Cowpox virus (Brighton Red)
[18] = test system: Vaccinia virus; test: Antiviral activity against Vaccinia virus WR infected BALB/c mouse assessed as mortality at 10 mg/kg, po treated for 5 days after 72 hrs of viral inoculation; assay type: functional, Orthopoxvirus vaccinia
[19] = test system: Cowpox virus; test: Antiviral activity against Cowpox virus Brighton infected BALB/c mouse assessed as mortality at 10 mg/kg, po treated for 5 days after 48 hrs of viral inoculation; assay type: functional, Cowpox virus (Brighton Red)
[20] = test system: Cowpox virus; test: Antiviral activity against Cowpox virus Brighton infected BALB/c mouse assessed as mortality at 10 mg/kg, po treated for 5 days after 72 hrs of viral inoculation; assay type: functional, Cowpox virus (Brighton Red)
[21] = test system: Vaccinia virus; test: Antiviral activity against Vaccinia virus WR infected BALB/c mouse assessed as mortality at 10 mg/kg, po treated for 5 days after 24 hrs of viral inoculation; assay type: functional, Orthopoxvirus vaccinia
[22] = test system: Vaccinia virus; test: Antiviral activity against Vaccinia virus WR infected BALB/c mouse assessed as mortality at 3 mg/kg, po treated for 5 days after 72 hrs of viral inoculation; assay type: functional, Orthopoxvirus vaccinia
[23] = test system: Cowpox virus; test: Antiviral activity against Cowpox virus Brighton infected BALB/c mouse assessed as log reduction of viral titer per gram of kidney at 30 mg/kg, po treated for 5 days after 24 hrs of viral inoculation; assay type: functional, Cowpox virus (Brighton Red)
[24] = test system: Cowpox virus; test: Antiviral activity against Cowpox virus Brighton infected BALB/c mouse assessed as mortality at 3 mg/kg, po treated for 5 days after 72 hrs of viral inoculation; assay type: functional, Cowpox virus (Brighton Red)
[25] = test system: Vaccinia virus; test: Toxicity in Vaccinia virus WR infected BALB/c mouse assessed as survival at 30 mg/kg, po treated for 5 days after 24 hrs of viral inoculation; assay type: functional, organism-based; set-up: dose 30 mg/kg; conditions: Orthopoxvirus vaccinia
[26] = test system: Vaccinia virus; test: Antiviral activity against Vaccinia virus WR infected BALB/c mouse assessed as mean death day at 3 mg/kg, po treated for 5 days after 24 hrs of viral inoculation; assay type: functional, Orthopoxvirus vaccinia
[27] = test system: Vaccinia virus; test: Antiviral activity against Vaccinia virus WR infected BALB/c mouse assessed as log reduction of viral titer per gram of kidney at 30 mg/kg, po treated for 5 days after 24 hrs of viral inoculation; assay type: functional, Orthopoxvirus vaccinia
[28] = test system: Vaccinia virus; test: Antiviral activity against Vaccinia virus WR infected BALB/c mouse assessed as mean death day at 30 mg/kg, po treated for 5 days after 48 hrs of viral inoculation; assay type: functional, Orthopoxvirus vaccinia
[29] = test system: Cowpox virus; test: Antiviral activity against Cowpox virus Brighton in HFF cells assessed as reduction of viral replication after 3 days; assay type: functional, organism-based, Cowpox virus (Brighton Red); conditions: 72 h
[30] = test system: Cowpox virus; test: Antiviral activity against Cowpox virus Brighton infected BALB/c mouse assessed as log reduction of viral titer per gram of spleen at 30 mg/kg, po treated for 5 days after 24 hrs of viral inoculation; assay type: functional, Cowpox virus (Brighton Red)
[31] = test system: Vaccinia virus; test: Antiviral activity against Vaccinia virus WR infected BALB/c mouse assessed as log reduction of viral titer per gram of spleen at 30 mg/kg, po treated for 5 days after 24 hrs of viral inoculation; assay type: functional, Orthopoxvirus vaccinia
[32] = test system: Cowpox virus; test: Toxicity in Cowpox virus Brighton infected BALB/c mouse assessed as survival at 30 mg/kg, po treated for 5 days after 24 hrs of viral inoculation; assay type: functional, organism-based; set-up: dose 30 mg/kg; conditions: Cowpox virus (Brighton Red)
[33] = test system: Vaccinia virus; test: Antiviral activity against Vaccinia virus WR infected BALB/c mouse assessed as mortality at 30 mg/kg, po treated for 5 days after 48 hrs of viral inoculation; assay type: functional, Orthopoxvirus vaccinia
[34] = test system: Cowpox virus; test: Antiviral activity against Cowpox virus Brighton infected BALB/c mouse assessed as mean death day at 30 mg/kg, po treated for 5 days after 72 hrs of viral inoculation; assay type: functional, Cowpox virus (Brighton Red)
[35] = test system: Vaccinia virus; test: Antiviral activity against Vaccinia virus WR infected BALB/c mouse assessed as log reduction of viral titer per gram of liver at 30 mg/kg, po treated for 5 days after 24 hrs of viral inoculation; assay type: functional, Orthopoxvirus vaccinia
[36] = test system: Vaccinia virus; test: Antiviral activity against Vaccinia virus WR infected BALB/c mouse assessed as mean death day at 3 mg/kg, po treated for 5 days after 48 hrs of viral inoculation; assay type: functional, Orthopoxvirus vaccinia
[37] = test system: Cowpox virus; test: Antiviral activity against Cowpox virus Brighton infected BALB/c mouse assessed as mean death day at 3 mg/kg, po treated for 5 days after 48 hrs of viral inoculation; assay type: functional, Cowpox virus (Brighton Red)
[38] = test system: Vaccinia virus; test: Antiviral activity against Vaccinia virus WR infected BALB/c mouse assessed as mean death day at 30 mg/kg, po treated for 5 days after 24 hrs of viral inoculation; assay type: functional, Orthopoxvirus vaccinia
[39] = Selectivity index, ratio of CC50 for HFF cells to EC50 for Vaccinia virus WR; assay type: toxicity, cell-based; conditions: human, read-out: Ratio CC50/EC50
[40] = test system: Cowpox virus; test: Antiviral activity against Cowpox virus Brighton infected BALB/c mouse assessed as reduction of virus titer in lung at 30 mg/kg, po treated for 5 days after 24 hrs of viral inoculation; assay type: functional, organism-based; set-up: dose 30 mg/kg; conditions: Cowpox virus (Brighton Red)

Row | SMILES | Activity [1] [%] | Activity [2] [days] | Activity [3] [days] | Activity [4] [days] | Activity [5] [days] | Activity [6] [days] | EC50 [7] [µM] | EC50 [8] [µM] | Activity [9] [days] | Activity [10] [days] | Activity [11] [%] | selectivity ratio [12] | CC50 at 168 h [13] [µM] | Activity [14] [%] | Activity [15] [days] | Activity [16] [%] | Activity [17] [%] | Activity [18] [%] | Activity [19] [%] | Activity [20] [%] | also measured
1 | CCCCCCCCCCCCCCCCOCCCOP(=O)(O)CO[C@H](CO)Cn1cnc2c(N)ncnc21 | 33 | 10.1 | 12.3 | 9.1 | 12.3 | 8 | 0.3 | 0.01 | 8 | 7.8 | 93 | 970 | 9.7 | 27 | 16.5 | 13 | 67 | 53 | 27 | 73 | Activity [21]: 0%; Activity [22]: 87%; log10PFU [23]: 2.5 g; Activity [24]: 87%; Activity [25]: Not toxic; Activity [26]: 7 days; log10PFU [27]: 4 g; Activity [28]: 11 days; EC50 [29]: 0.02 µM; log10PFU [30]: 2.5 g; log10PFU [31]: 4 g; Activity [32]: Not toxic; Activity [33]: 7%; Activity [34]: 6.5 days; log10PFU [35]: 4 g; Activity [36]: 9.2 days; Activity [37]: 12.7 days; Activity [38]: 7 days; selectivity ratio [39]: 32; Activity [40]: inactive
2 | CCCCCCCCCCCCCCCCCCOCCOP(=O)(O)CO[C@H](CO)Cn1cnc2c(N)ncnc21 | 53 | 11.1 | 12.2 | 9 | 11 | 10.3 | 0.1 | 0.01 | 10.5 | 9 | 60 | 150 | 1.5 | 67 | 9.5 | 13 | 7 | 33 | 20 | 67 | Activity [21]: 0%; Activity [22]: 40%; log10PFU [23]: 2.5 g; Activity [24]: 93%; Activity [25]: Not toxic; Activity [26]: 8.8 days; log10PFU [27]: 4 g; Activity [28]: 9.7 days; EC50 [29]: 0.02 µM; log10PFU [30]: 2.5 g; log10PFU [31]: 4 g; Activity [32]: Not toxic; Activity [33]: 40%; Activity [34]: 10.6 days; log10PFU [35]: 4 g; Activity [36]: 7.9 days; Activity [37]: 10.6 days; Activity [38]: 8.3 days; selectivity ratio [39]: 15; Activity [40]: inactive
